Test results reported in patent US20100144003A1, “INDUCTION OF MICROBIAL SECONDARY METABOLITES” (AQUAPHARM BIO-DISCOVERY LIMITED, priority 2007, published 2010).

System: Gram-positive bacterial strains
Experiment: activity against Gram-positive bacterial strains
Format: cell-based
Conditions: compound produced by AQP4511 in PDY medium supplemented with 0.5 mM NaNO3
Protocol: A Streptomyces sp. strain AQP4511 produced a red orange compound, which has a naphthoquinone structure, in a PDY medium supplemented with 0.5 mM NaNO3.

SMILES: COc1cc(O)c2c(c1)C(=O)C1=C(C2=O)C(OC(C)=O)C(O)C(C)O1 (stereo not shown) [Gunacin]
- activity against most of Gram-positive bacterial strains: very strong activity
